Experiments:
Conditions in all cases: incubation time: 72 h
MDA-MB-436 [1] = test: normalised viability (% of control), CellTiter-Blue; higher = more viable cells (about 100 = DMSO control)
Summary of the method: (§1)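 Breast cancer cell lines were treated for 72 h in 384-well format and measured by CellTiter-Blue fluorescence at 560/590 nm. Results were normalised per plate to vehicle (100) and a positive kill control (0). The entry is normalised viability at a single listed concentration of the series.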

SK-BR-3 = test: as above
Summary of the method: as §1

HCC1937 = test: as above
Summary of the method: as §1

MDA-MB-468 = test: as above
Summary of the method: as §1

BT-474 [2] = test: as above
Summary of the method: as §1

CAL-51 [3] = test: as above
Summary of the method: as §1

CAL-85-1 [4] = test: as above
Summary of the method: as §1

HCC1143 [5] = test: as above
Summary of the method: as §1

MDA-MB-231 [6] = test: as above
Summary of the method: as §1

CAL-120 = test: as above
Summary of the method: as §1

BT-549 = test: as above
Summary of the method: as §1

DU-4475 [7] = test: as above
Summary of the method: as §1

MFM-223 = test: as above
Summary of the method: as §1

MDA-MB-453 [8] = test: as above
Summary of the method: as §1

Hs578T = test: as above
Summary of the method: as §1

HCC1599 = test: as above
Summary of the method: as §1

HDQ-P1 [9] = test: as above
Summary of the method: as §1

CAL-148 [10] = test: as above
Summary of the method: as §1

CAL-51 [11] = test: normalised viability (% of control), CellTiter-Blue; higher = more viable cells (about 100 = DMSO control); remark: listed apart in the source
Method: (§2)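 DSRT, CellTiter-Blue viability, 72 h incubation. Signal is normalised to DMSO and benzethonium chloride controls. Value is the normalised response at dose 9.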

CAL-85-1 [12] = test: as above; remark: listed apart in the source
Method: as §2

DU-4475 [13] = test: as above; remark: listed apart in the source
Method: as §2

MDA-MB-453 [14] = test: as above; remark: listed apart in the source
Method: as §2

HDQ-P1 [15] = test: as above; remark: listed apart in the source
Method: as §2

CAL-148 [16] = test: as above; remark: listed apart in the source
Method: as §2

MDA-MB-436 [17] = test: normalised viability (% of control), CellTiter-Blue; higher = more viable cells (100 = DMSO, 0 = benzethonium chloride kill control)
Method: (§3)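 DSRT, CellTiter-Blue viability, 72 h incubation. Signal is normalised to DMSO and benzethonium chloride controls. Value is the normalised response at dose 1.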

BT-474 [18] = test: as above
Method: as §3

CAL-85-1 [19] = test: as above
Method: as §3

HCC1143 [20] = test: as above
Method: as §3

MDA-MB-231 [21] = test: as above
Method: as §3

MDA-MB-453 [22] = test: as above
Method: as §3

CAL-148 [23] = test: as above
Method: as §3

COc1ccc(-c2ccc3c(N4CCOC[C@@H]4C)nc(N4CCOC[C@@H]4C)nc3n2)cc1CO [AZD8055]
normalised viability (MDA-MB-436 [1]; 10000 nM): 40.1%
normalised viability (SK-BR-3; 10000 nM): 10.4%
normalised viability (HCC1937; 10000 nM): 40.3%
normalised viability (MDA-MB-468; 10000 nM): 21.4%
normalised viability (BT-474 [2]; 10000 nM): 16.9%
normalised viability (CAL-51 [3]; 100 nM): 27.3%
normalised viability (CAL-85-1 [4]; 100 nM): 46.3%
normalised viability (HCC1143 [5]; 10000 nM): 28.4%
normalised viability (MDA-MB-231 [6]; 10000 nM): 22.7%
normalised viability (CAL-120; 10000 nM): 9.25%
normalised viability (BT-549; 10000 nM): 14.4%
normalised viability (DU-4475 [7]; 100 nM): 58.6%
normalised viability (MFM-223; 10000 nM): 14.6%
normalised viability (MDA-MB-453 [8]; 100 nM): 21.1%
normalised viability (Hs578T; 10000 nM): 17.6%
normalised viability (HCC1599; 10000 nM): 43.4%
normalised viability (HDQ-P1 [9]; 100 nM): 45.6%
normalised viability (CAL-148 [10]; 100 nM): 30.4%
normalised viability (CAL-51 [11]; 10000 nM): 6.13%
normalised viability (CAL-85-1 [12]; 10000 nM): 18.8%
normalised viability (DU-4475 [13]; 10000 nM): 8.6%
normalised viability (MDA-MB-453 [14]; 10000 nM): 12.2%
normalised viability (HDQ-P1 [15]; 10000 nM): 22.7%
normalised viability (CAL-148 [16]; 10000 nM): 3.64%
normalised viability (MDA-MB-436 [17]; 1 nM): 113%
normalised viability (BT-474 [18]; 1 nM): 103%
normalised viability (CAL-85-1 [19]; 1 nM): 96.2%
normalised viability (HCC1143 [20]; 1 nM): 98.2%
normalised viability (MDA-MB-231 [21]; 1 nM): 98.3%
normalised viability (MDA-MB-453 [22]; 1 nM): 89.3%
normalised viability (CAL-148 [23]; 1 nM): 94.6%

C[C@]12CC[C@H](O)CC1=CC[C@@H]1[C@@H]2CC[C@]2(C)C(c3cccnc3)=CC[C@@H]12 [Abiraterone]
normalised viability (MDA-MB-436 [1]; 5000 nM): 107%
normalised viability (SK-BR-3; 5000 nM): 93.5%
normalised viability (HCC1937; 5000 nM): 101%
normalised viability (MDA-MB-468; 5000 nM): 111%
normalised viability (BT-474 [2]; 5000 nM): 98.8%
normalised viability (CAL-51 [3]; 50 nM): 104%
normalised viability (CAL-85-1 [4]; 50 nM): 96.4%
normalised viability (HCC1143 [5]; 5000 nM): 83%
normalised viability (MDA-MB-231 [6]; 5000 nM): 131%
normalised viability (CAL-120; 5000 nM): 92.1%
normalised viability (BT-549; 5000 nM): 119%
normalised viability (DU-4475 [7]; 50 nM): 90.2%
normalised viability (MFM-223; 5000 nM): 87.8%
normalised viability (MDA-MB-453 [8]; 50 nM): 102%
normalised viability (Hs578T; 5000 nM): 110%
normalised viability (HCC1599; 5000 nM): 120%
normalised viability (HDQ-P1 [9]; 50 nM): 110%
normalised viability (CAL-148 [10]; 50 nM): 90.7%
normalised viability (CAL-51 [11]; 5000 nM): 92%
normalised viability (CAL-85-1 [12]; 5000 nM): 82.1%
normalised viability (DU-4475 [13]; 5000 nM): 93.3%
normalised viability (MDA-MB-453 [14]; 5000 nM): 89.2%
normalised viability (HDQ-P1 [15]; 5000 nM): 113%
normalised viability (CAL-148 [16]; 5000 nM): 92.1%
normalised viability (MDA-MB-436 [17]; 0.5 nM): 114%
normalised viability (BT-474 [18]; 0.5 nM): 86.1%
normalised viability (CAL-85-1 [19]; 0.5 nM): 82.8%
normalised viability (HCC1143 [20]; 0.5 nM): 86.6%
normalised viability (MDA-MB-231 [21]; 0.5 nM): 96%
normalised viability (MDA-MB-453 [22]; 0.5 nM): 108%
normalised viability (CAL-148 [23]; 0.5 nM): 103%

CN(C)CCN1C(=O)c2cccc3cc(N)cc(c23)C1=O [Amonafide]
normalised viability (MDA-MB-436 [1]; 10000 nM): 44.1%
normalised viability (SK-BR-3; 10000 nM): 20.8%
normalised viability (HCC1937; 10000 nM): 29.5%
normalised viability (MDA-MB-468; 10000 nM): 41.3%
normalised viability (BT-474 [2]; 10000 nM): 69.3%
normalised viability (CAL-51 [3]; 100 nM): 104%
normalised viability (CAL-85-1 [4]; 100 nM): 87.8%
normalised viability (HCC1143 [5]; 10000 nM): 43.5%
normalised viability (MDA-MB-231 [6]; 10000 nM): 22.3%
normalised viability (CAL-120; 10000 nM): 24.3%
normalised viability (BT-549; 10000 nM): 47.9%
normalised viability (DU-4475 [7]; 100 nM): 84.6%
normalised viability (MFM-223; 10000 nM): 31.6%
normalised viability (MDA-MB-453 [8]; 100 nM): 81%
normalised viability (Hs578T; 10000 nM): 47.6%
normalised viability (HCC1599; 10000 nM): 47.5%
normalised viability (HDQ-P1 [9]; 100 nM): 110%
normalised viability (CAL-148 [10]; 100 nM): 84.7%
normalised viability (CAL-51 [11]; 10000 nM): 6.12%
normalised viability (CAL-85-1 [12]; 10000 nM): 27.6%
normalised viability (DU-4475 [13]; 10000 nM): 1.19%
normalised viability (MDA-MB-453 [14]; 10000 nM): 20.4%
normalised viability (HDQ-P1 [15]; 10000 nM): 45.5%
normalised viability (CAL-148 [16]; 10000 nM): 8.2%
normalised viability (MDA-MB-436 [17]; 1 nM): 102%
normalised viability (BT-474 [18]; 1 nM): 103%
normalised viability (CAL-85-1 [19]; 1 nM): 90%
normalised viability (HCC1143 [20]; 1 nM): 83.7%
normalised viability (MDA-MB-231 [21]; 1 nM): 93.1%
normalised viability (MDA-MB-453 [22]; 1 nM): 87.3%
normalised viability (CAL-148 [23]; 1 nM): 89.9%
